Data taken from patent US10760110B2, “Antibiotic testing and screening system” (priority 2017, dated 2020).
Read-outs that look alike come from different tables or passages of the source.

Tested on: K. pneumoniae NVT1001 and its GyrA/ParC and ΔramR mutants
Assay: Etest MIC of quinolones, GyrA/ParC mutations and AcrAB-TolC overexpression (ΔramR) (Table 10)
Type: cell-based
Details: Klebsiella pneumoniae
Description: DNA fragments of the entire gyrA and parC sequences along with their flanking regions were amplified from K. pneumoniae strain NVT1001 using PCR with specific primer pairs and then cloned into the plasmid pUT-KB. The QuikChange site-directed mutagenesis kit (Stratagene) was used to generate mutations in the gyrA and parC genes in the plasmid using the methods described by the manufacturer. For homologous recombination, plasmids containing mutations in the gyrA or parC gene were transformed into E. coli S17-1 λpir^23 via electroporation and mobilized into K. pneumoniae strain NVT1001 via conjugation. Single-crossover strains were selected from BIND plates supplemented with kanamycin (50 mg/L), as the growth of non-K. pneumoniae contaminants is suppressed on BIND plates.^24 After the kanamycin-resistant transconjugants were selected, the insertion of plasmids was verified via PCR. After incubation in 20 mL BHI broth for 6 hours at 37° C. in the absence of kanamycin, the fully grown cultures were spread onto LB agar plates supplemented with 10% sucrose. After the double crossover occurred, the sucrose-resistant and kanamycin-susceptible colonies were selected, and the gene mutations were confirmed via PCR.
The MICs of antibiotics were determined using the Etest (Biodisk AB, Sweden) according to the manufacturer's instructions. The MICs from the Etest, which fall between standard two-fold dilutions, were rounded up to the next highest two-fold value. The MICs of ceftazidime and cefotaxime against K. pneumoniae NVT1001 harbouring the pACYC177 plasmid with blaOXA-48 were further determined using a broth microdilution test according to the recommendations of the CLSI,^25 and the results were interpreted according to the breakpoints established by the CLSI in 2017.^25 Meanwhile, due to the lack of CLSI breakpoints in 2016 and 2017, the results for cephalothin were interpreted according to the breakpoints established by the CLSI in 2015,^26 and the results for moxifloxacin were interpreted according to the breakpoints established by the EUCAST in 2017.^27

COc1c(N2C[C@@H]3CCCN[C@@H]3C2)c(F)cc2c(=O)c(C(=O)O)cn(C3CC3)c12 [Moxifloxacin, moxifloxacin]
MIC (D87N mutant (GyrA D87N)): 0.5 µg/mL | MIC (D87N/S80I mutant): 1 µg/mL | MIC (NVT1001, read-out: MIC): 0.125 µg/mL | MIC (S80I mutant (ParC S80I)): 0.25 µg/mL | MIC (S83F mutant (GyrA S83F)): 0.5 µg/mL | MIC (S83F/D87N mutant): 0.5 µg/mL | MIC (S83F/D87N/S80I mutant): 32 µg/mL | MIC (S83F/S80I mutant): 1 µg/mL | MIC (S83I mutant (GyrA S83I)): 1 µg/mL | MIC (S83I/D87N mutant): 1 µg/mL | MIC (S83I/D87N/S80I mutant): > 32 µg/mL | MIC (S83I/S80I mutant): 8 µg/mL | MIC (S83L mutant (GyrA S83L)): 0.5 µg/mL | MIC (S83L/D87N mutant): 0.5 µg/mL | MIC (S83L/D87N/S80I mutant): 32 µg/mL | MIC (S83L/S80I mutant): 2 µg/mL | MIC (S83Y mutant (GyrA S83Y)): 0.5 µg/mL | MIC (S83Y/D87N mutant): 0.5 µg/mL | MIC (S83Y/D87N/S80I mutant): 32 µg/mL | MIC (S83Y/S80I mutant): 1 µg/mL | MIC (ΔramR mutant): 1 µg/mL | MIC (ΔramR/S83I mutant): 8 µg/mL | MIC (ΔramR/S83I/D87N/S80I mutant): > 32 µg/mL | MIC (ΔramR/S83I/S801 mutant): > 32 µg/mL
